One data set has as its system SOCE, Orai1 and STIM1. The settings on record: ref [49]; cited from earlier work.
In another data set the test system is CF neutrophils. The settings on record: ex vivo treatment; ref [12]; cited from earlier work. From the text: Since SPLUNC1 is rapidly degraded ...
A further data set concerns SOCE in CF neutrophils. The settings on record: in vitro CFTR potentiation; ref [12]; cited from earlier work. From the text: We have previously reported that Ca^2+ signaling is influenced by estrogen in pwCF airways. […] Circulating neutrophil levels fluctuate during the menstrual cycle and sex-specific differences in neutrophil function have previously been described. It may have been that all our female participants had low circulating estrogen levels at time of sample, or that SOCE in neutrophils is less-estrogen sensitive than SOCE in airway epithelia. Importantly, most CF participants were taking CFTR modu ...

In data set [1] the test system is inositol monophosphatase 2 (printed IMAP2). The note with it: no reference printed with the statement; cited from earlier work. The text has this: Increased SOCE has previously been described in CF neutrophils and may be causal for CF neutrophil hyperactivity. However, Orai1’s involvement in SOCE in neutrophils has not been extensively studied, and the impact of CFTR modulator therapies on Orai1/SOCE is not well-understood. To globally assess the impact of ETI on CF neutrophils, we first performed a proteomic analysis. This analysis identified multiple proteins that were differentially expressed in CF-derived neutrophils relative to neutrophils from non-CF participants, even though the majority of pwCF in this part of the study ha ...

For data set [2], the system named is SOCE/Orai1 in CF peripheral blood neutrophils. As to the kind of experiment: Fluo-4 Ca2+ assay, global thapsigargin-stimulated Ca2+ response (SOCE), CF neutrophils. It counts as cell-based, human. The settings on record: CF, 1 μM thapsigargin. Here is the method:
(§1) Neutrophils were immediately isolated by negative selection from deidentified blood samples using an EasySep human neutrophil isolation kit (Stem Cell Technologies) as described. Cytosolic Ca^2+ was measured using Fluo-4 as described. Protein lysate from isolated blood neutrophils was characterized by liquid chromatography with tandem mass spectrometry (LC-MS/MS) as described. Degranulation products in media were quantified by Luminex assay using a custom Bio-Plex human kit (BioRad) per the manufacturer’s protocol […]. Detailed methods for all experiments and measurements are provided in an online data supplement.
(§2) Isolated neutrophils were incubated with peptide or vehicle control for 3 h. For the final hour of treatment, cells were loaded with Fluo-4 direct (Thermofisher) for 45 min at 37°C and 15 min at room temperature as described.
(§3) Fluo-4 Ca^2+ assays. Isolated neutrophils were incubated with peptide or vehicle control for 3 h. For the final hour of treatment, cells were loaded with Fluo-4 direct (Thermofisher) for 45 min at 37°C and 15 min at room temperature. For global Ca^2+ measurements, baseline fluorescent readings were made for 2 min (1 read every 30 s) using a Tecan Infinite M1000 plate reader (ex 494 em 516 nm, bandwidth 5 nm) before thapsigargin (Sigma-Aldrich) was added and the change in emission was recorded for 10 min (1 read every 30 s). To isolate phases of store operated Ca^2+ entry, cells underwent 3 rounds of centrifugation and resuspension in Ca^2+-free Ringer’s solution to remove extracellular Ca^2+. Baseline fluo-4 fluorescence was read for 2 min before cell were stimulated with thapsigargin (Tocris). Reads continued for ~5 min before 1.2 mM Ca^2+ was added to the extracellular solution and SOCE was measured for ~10 mins. For analysis, all fluo-4 fluorescence reads are normalized to baseline.

Data set [3] relates to SOCE/Orai1 in non-CF peripheral blood neutrophils. The experiment in a line: Fluo-4 Ca2+ assay, global thapsigargin-stimulated Ca2+ response (SOCE), non-CF neutrophils. It counts as cell-based, human. The note with it: 1 μM thapsigargin. On the procedure:
as §1, §2, §3

Data set [4] has as its system Ca2+ influx in CF neutrophils. As to the kind of experiment: Fluo-4 Ca2+ influx across the plasma membrane, CF neutrophils. The class given is cell-based, human. The note with it: thapsigargin 1 μM, regardless of genotype. On the procedure:
as §2
(§4) Fig. 3. ELD607 inhibits SOCE in non-CF and CF neutrophils. (A) and (B) Mean changes in fluo-4 fluorescence as a marker of cytoplasmic Ca^2+ levels in non-CF and CF neutrophils respectively before and after stimulation with 1 μM thapsigargin (Tg). Before stimulation, neutrophils were exposed to vehicle (0.1% DMSO in PBS), 10 μM ELD607 or scrambled peptide (control) for 3 h. N = 10 non-CF and 21 CF donors. Stats show ELD607 vs vehicle or scrambled peptide based on color. (C-F) Isolation of ER Ca^2+ release vs Ca^2+ influx across the plasma membrane in non-CF and CF Neutrophils. Neutrophils were stimulated with thapsigargin (1 μM) in the absence of extracellular Ca^2+ to allow the release of Ca^2+ stores to be measured. Extracellular Ca^2+ was then returned so that extracellular Ca^2+ influx could be measured. (C) Mean fold change in Fluo-4 fluorescence during ER store release in non-CF and CF neutrophils. […] (E) Mean fold change in fluo-4 fluorescence during Ca^2+ influx in non-CF and CF neutrophils. […]
(§5) SOCE has 2 phases: release of Ca^2+ from ER stores and Ca^2+ influx from the extracellular space via Ca^2+ channels such as Orai1. […] Once the stores had emptied, extracellular Ca^2+ was reintroduced and Ca^2+ influx was measured (Fig. 3C–F).
(§6) Fluo-4 Ca^2+ assays. […] For global Ca^2+ measurements, baseline fluorescent readings were made for 2 min (1 read every 30 s) using a Tecan Infinite M1000 plate reader (ex 494 em 516 nm, bandwidth 5 nm) before thapsigargin (Sigma-Aldrich) was added and the change in emission was recorded for 10 min (1 read every 30 s). […] Baseline fluo-4 fluorescence was read for 2 min before cell were stimulated with thapsigargin (Tocris). Reads continued for ~5 min before 1.2 mM Ca^2+ was added to the extracellular solution and SOCE was measured for ~10 mins. For analysis, all fluo-4 fluorescence reads are normalized to baseline.

Data set [5] relates to Ca2+ influx in non-CF neutrophils. The experiment in a line: Fluo-4 Ca2+ influx across the plasma membrane, non-CF neutrophils. The class given is cell-based, human. The note with it: thapsigargin 1 μM, regardless of genotype. Here is the method:
as §2, §4, §5, §6

In a further data set the test system is neutrophil elastase. The note with it: neutrophil elastase; ref [20]; cited from earlier work.

Take `NCCOB(c1ccccc1)c1ccccc1` [2-aminoethoxydiphenyl borate]: the “inhibition of SOCE, Orai1 and STIM1” value in the data set with SOCE, Orai1 and STIM1 is “broad spectrum SOCE antagonist that also inhibits Orai1 and STIM1”.

As to `CC(C)(C)c1cc(C(C)(C)C)c(NC(=O)c2c[nH]c3ccccc3c2=O)cc1O` [Kalydeco], the “bacterial killing by CF neutrophils” value in the data set with CF neutrophils was “improved”. For the same molecule, the “SOCE and bacterial killing of CF neutrophils” value in the data set with SOCE in CF neutrophils was “sufficient to normalize SOCE and CF neutrophil bacterial killing”.

On to `[Li]` [lithium], for which the “effect of IMPA2 inhibition on inositol phosphate” value in data set [1] is “cellular accumulation of inositol phosphate”.

In the case of `C/C=C(/C)C(=O)O[C@H]1C(C)=C2[C@H]([C@@H]1OC(=O)CCCCCCC)[C@@](C)(OC(C)=O)C[C@H](OC(=O)CCC)[C@@]1(O)[C@H]2OC(=O)[C@@]1(C)O` [thapsigargin], the “rate of activation (slope) of cytoplasmic Ca2+ response” value is 0.085 ± 0.009 in [2] (Fluo-4, vs non-CF p<0.001) and 0.033 ± 0.012 in data set [3] (vs CF p<0.001). The “increase in cytoplasmic Ca2+ vs non-CF” value in data set [2] (n = 10 non-CF, 21 CF) is “significantly greater increases in cytoplasmic Ca^2+ than non-CF controls”. The “Ca2+ influx relative to ER Ca2+ release, CF” value in data set [4] is reported as ~ 10 fold. In data set [5], the “Ca2+ influx relative to ER Ca2+ release, non-CF” value is ~ 10 fold.

For the molecule “VIRGINDMHVL [scrambled ELD607, scrambled version of ELD607 (negative control peptide)]”, the “inhibition of SOCE (global Ca2+ response)” value was “no effect on SOCE in either group” in data set [2] (10 μM peptide, 3 h pre-treatment, Fluo-4, N = 21 donors) and “no effect on SOCE in either group” in [3] (10 μM peptide, 3 h pre-treatment, N = 10 donors).

B1: SPLUNC1: short palate lung and nasal epithelial clone 1, endogenous protein (protein, UniProt Q9NP55 20-256, looked up)
BPI fold-containing family A …: QFGGLPVPLDQTLPLNVNPALPLSPTGLAGSLTNALSNGLLSGGLLGILENLPLLDILKPGGGTSGGLLGGLLGKVTSVIPGLNNIIDIKVTDPQLLELGLVQSPDGHRLYVTIPLGIKLQVNTPLVGASLLRLAVKLDITAEILAVRDKQERIHLVLGDCTHSPGSLQISLLDGLGPLPIQGLLDSLTGILNKVLPELVQGNVCPLVNEVLRGLDITLVHDIVNMLIHGLQFVIKV
As to B1, the “degradation by neutrophil elastase” value in the data set on neutrophil elastase is given as “rapidly degraded by neutrophil elastase”.

These data come from article PMC12998938, “Neutrophil store-operated Ca^2+ entry: A correctable biomarker of cystic fibrosis lung disease progression” (Journal of cystic fibrosis : official journal of the …, 2025).
